Laboratory results published in EP0256909B1, “N,N-bis-(4-fluorophenyl) carbamoyl acetohydroxamic acid and pharmaceutical composition containing it” (priority 1986, dated 1988).

Tests used:
rat = assay: Interaction with amphetamine; type: in vivo; conditions: comparison section, no dose given
souris [1] = assay: Interaction with reserpine; type: in vivo; conditions: 64 mg/kg, comparison section
Protocol: Quatre heures après l'injection intrapéritonéale de 2,5 mg/kg de réserpine, des lots de 6 souris reçoivent le CRL 41131.

souris [2] = assay: Interaction with oxotremorine; type: in vivo; conditions: mouse, oxotremorine 0,5 mg/kg i.p.
Protocol: Le CRL 41131 est administré à des lots de 6 souris 30 min avant l'injection intrapéritonéale de 0,5 mg/kg d'oxotrémorine.

souris [3] = assay: Electroshock test; type: in vivo; conditions: comparison section, no dose given
souris [4] = assay: Intergroup aggressiveness; type: in vivo; conditions: 32 et 256 mg/kg, comparison section
Protocol: Après avoir séjourné pendant 3 semaines dans chacune des moitiés d'une cage séparées par une cloison opaque, des groupes de 3 souris reçoivent le CRL 41131. Trente minutes plus tard, les deux groupes d'une même cage sont réunis par retrait de la cloison et on note le nombre de combats qui surviennent en 10 min.

souris [5] = assay: Interaction with barbital; type: in vivo; conditions: comparison section
Protocol: Trente minutes après l'administration de CRL 41131, des lots de 10 souris reçoivent une injection intrapéritonéale de barbital (220 mg/kg).

in vivo = conditions: mouse, in vivo; for LD50 at 24 h: dose létale 50% (DL50), 24 h after administration
Protocol: Le CRL 41131, en suspension dans une solution de gomme arabique à 5%, a été administré par voie intrapéritonéale sous un volume de 20 ml/kg chez la souris (mâle, NMRI, Evic Ceba) et de 5 ml/kg chez le rat (mâle, CD1, Sprague Dawley, Charles River).
Aussitôt après l'administration de CRL 41131, les souris groupées par lots de 10 sont placées dans des boîtes en Plexiglass (20 x 10 x 10 cm).
On note le nombre d'animaux morts, toutes les heures pendant 4 h et après 24, 48 et 72 h.
La toxicité du CRL 41131 est déterminée dans les mêmes conditions sur des lots de souris placées à raison d'une par boîte.

[6] = results given in the earlier document; cited from earlier work

O=C(CC(=O)N(c1ccccc1)c1ccccc1)NO [CRL 40385, reference compound]
test à l'amphétamine: stéréotypies du rat (rat): prolonge les stéréotypies du rat
test à la réserpine: hypothermie (souris [1]): s'oppose modérément
action hypothermisante de l'oxotrémorine (température) (souris [2]): antagonise l'hyperthermie
intensité des tremblements provoqués par l'oxotrémorine (souris [2]): diminue l'intensité des tremblements
test à l'électrochoc (souris [3]): s'oppose aux convulsions
agressivité intergroupe des souris (souris [4]): augmentation
sommeil (association au barbital) (souris [5]; 512 mg/kg): il ne le fait plus
sommeil (association au barbital) (souris [5]; doses below 512 mg/kg): diminue d'abord le sommeil
LD50 at 24 h (in vivo; ip, grouped mice): ~1050 mg/kg
LD50 at 24 h (in vivo; ip, isolated mice): ~1500 mg/kg
effet mis en évidence par un ensemble de tests [6]: effet anti-fatigue

CC(Cc1ccccc1)N(C)Cc1ccccc1 (stereo not shown) [benzophétamine, reference compound]
selectivity ratio (in vivo; ip, rapport, LD50 ratio isolated/grouped mice (formula not readable), same conditions, 24 h): ~4

CCN(CC)C(C)C(=O)c1ccccc1 (stereo not shown) [diéthylpropion, reference compound]
selectivity ratio at 24 h (in vivo): ~8
